Assay results: patent US8722072B2, “Acaricidal and/or insecticidal active ingredient combinations” (priority 2010, dated 2014)

Key:
Type in all cases: in vivo
[1] = system: Tetranychus urticae; assay: Example 1: field test on aubergines against Tetranychus urticae; settings: for Destruction (% Abbott) 1 day: 1 day after treatment; for Destruction (% Abbott) 55 days: 55 days after treatment; for Destruction (% Abbott) 45 days: 45 days after treatment
Procedure: In plots measuring approximately 14 m^2, aubergines (around 11 weeks after planting out) of the cultivar “Heilongchangqie” are treated in three replications against Tetranychus urticae. Application takes place using a sprayer. […] The water application rate is 450 l/ha.
Evaluation is made 1 day and 55 days after treatment, by scoring the destruction of the eggs on the leaves.
A further evaluation is made 45 and 55 days after treatment, by scoring the destruction of the nymphs on the leaves.

[2] = system: Tetranychus urticae; assay: Example 2: field test on roses (Blizard) against Tetranychus urticae; settings: adults on leaves, 3 days after treatment
Procedure: In plots measuring approximately 6 m^2, roses of the cultivar “Blizard” with an age of approximately 3 years are treated in three replications against Tetranychus urticae. Application takes place using a back-mounted spray (3.5 bar). […] The water application rate is 1320 l/ha. Evaluation is made 3 days after treatment, by counting the adults on the leaves/square inch. Subsequently, the activity is calculated as a percentage by the method of Henderson and Tilton.

[3] = system: Tetranychus urticae; assay: Example 3: field test on tomatoes against Tetranychus urticae; settings: adults on leaves, 3 days after treatment
Procedure: In plots measuring approximately 6 m^2, tomatoes of the cultivar “Leader” are treated in three replications against Tetranychus urticae. Application takes place using a back-mounted spray (4.5 bar). […] The water application rate is 1000 l/ha.
Evaluation is made 3 days after treatment, by scoring the destruction of the adults on the leaves.

[4] = system: Tetranychus urticae; assay: Example 4: field test on cotton plants against Tetranychus urticae; settings: population on leaves, 13 days after treatment
Procedure: In plots measuring approximately 15 m^2, cotton plants of the cultivar “BRS Aroeira” with a height of approximately 80 cm are treated in three replications against Tetranychus urticae. Application takes place using a spray at 2.5 bar. […] The water application rate is 200 l/ha.
Evaluation is made 13 days after treatment, by scoring the destruction of the population on the leaves.

[5] = system: Tetranychus urticae; assay: Example 5: field test on roses (Freedom) against Tetranychus urticae; settings: population on leaves, 1 day after treatment
Procedure: In plots measuring approximately 14 m^2, roses (growth stage 46) of the cultivar “Freedom” in double rows are treated in three replications against Tetranychus urticae. Application takes place using a back-mounted spray. In this example, the mixture of the active ingredients Oberon, Example (I), and abamectin, Example (VI), is tested against the commercial standards abamectin (018 EC) and Oberon (240 SC) at the stated application rates and in the stated mixing ratios. The water application rate is 1000 l/ha.
Evaluation is made 1 day after treatment, by scoring the destruction of the population on the leaves.

[6] = system: Tetranychus urticae; assay: Example 6: field test on aubergines (Suqi qie) against Tetranychus urticae, ready-prepared mixture 20:1; settings: for Destruction (% Abbott) 21 days (eggs) / Destruction (% Abbott) 21 days (males) / Destruction (% Abbott) 21 days (population): 21 days after treatment; for Destruction (% Abbott) 1 day: males on leaves, 1 day after treatment; for Destruction (% Abbott) 21 days (population): total population
Procedure: In plots measuring approximately 8 m^2, aubergines (growth stage 15) of the cultivar “Suqi qie” are treated in three replications against Tetranychus urticae. Application takes place using a back-mounted sprayer. […] The water application rate is 450 l/ha.
Evaluation is made 1 day after treatment, by scoring the destruction of the males on the leaves.
A further evaluation is made 21 days after treatment, by scoring the destruction of the eggs, the destruction of the males, and the total population on the leaves.

[7] = system: Hemitarsonemus latus; assay: Example 7: field test on bell peppers against Hemitarsonemus latus; settings: adults on leaves, 2 days after treatment
Procedure: In plots measuring approximately 6 m^2, bell peppers of the cultivar “California Wonder” (growth stage 75) are treated in three replications against Hemitarsonemus latus. Application takes place using a sprayer at 2.5 bar pressure. […] The water application rate is 300 l/ha.
Evaluation is made 2 days after treatment, by scoring the destruction of the adults on the leaves.

[8] = system: two-spotted spider mite (Tetranychus urticae); assay: Example 8: Tetranychus urticae - test on cotton; settings: cotton plants, spray
Procedure: Tetranychus urticae—Test on Cotton
• Solvent: 7 parts by weight of dimethylformamide • Emulsifier: 2 parts by weight of alkylaryl polyglycol ether
(§1) An appropriate preparation of active ingredient is prepared by mixing 1 part by weight of active ingredient with the stated amounts of solvent and emulsifier and diluting the concentrate with emulsifier-containing water to the desired concentration.
Cotton plants (Gossypium hirsutum) infected with the two-spotted spider mite (Tetranychus urticae) are treated by being sprayed with the preparation of active ingredient in the desired concentration.
After the desired time, a determination is made of the destruction in %. 100% here means that all of the mites have been killed; 0% means that no mites have been killed. The destruction figures ascertained are calculated by the Colby formula.

[9] = system: Frankliniella occidentalis; assay: Example 9: field test on bell peppers against Frankliniella occidentalis; settings: for Destruction (% Abbott) 7 days: adults in the flowers, 7 days after the second treatment; for Destruction (% Abbott) 14 days: mixed population in the flowers, 14 days after the second treatment
Procedure: In plots measuring approximately 10 m^2, bell peppers of the cultivar “Italiano verde” are treated in three replications against Frankliniella occidentalis. Application is made using a back-mounted spray (10 bar). […] The water application rate is 750 l/ha. Two applications are carried out, at an interval of 7 days.
Evaluation is made 7 days after the second treatment, by scoring the destruction of the adults in the flowers.
Evaluation is made 14 days after the second treatment, by scoring the destruction of the mixed population in the flowers.

[10] = system: whitefly (Bemisia tabaci); assay: Example 10: Bemisia tabaci - test on cotton; settings: cotton plants, spray
Procedure: Bemisia tabaci—Test on Cotton
(§2) • Solvent: 7 parts by weight of dimethylformamide • Emulsifer: 2 parts by weight of alkylaryl polyglycol ether
as §1
Cotton plants (Gossypium hirsutum) infested with whitefly (Bemisia tabaci) are treated by being sprayed with the preparation of active ingredient at the desired concentration.
(§3) After the desired time, the destruction is determined in %. 100% here means that all of the whitefly have been killed; 0% means that no whitefly have been killed. The destruction figures ascertained are calculated by the Colby formula.

[11] = system: whitefly (Bemisia tabaci); assay: Example 11: Bemisia tabaci - test on cabbage; settings: cabbage plants, spray
Procedure: Bemisia tabaci—Test on Cabbage
as §2, §1
Cabbage plants (Brassica oleracea) infested with whitefly (Bemisia tabaci) are treated by being sprayed with the preparation of active ingredient at the desired concentration.
as §3

[12] = system: larvae of the seven-spotted ladybird (Coccinella septempunctata); assay: Example 13: Coccinella septempunctata larvae - test on plums (beneficial species); settings: plum leaves, spray
Procedure: Coccinella septempunctata/Larvae—Test on Plums
An appropriate solution for application is prepared by diluting the respective formulation to the desired concentration.
Plum leaves colonized by larvae of the seven-spotted ladybird (Coccinella septempunctata) are treated by being sprayed with the application solution at the desired concentration.
After the desired time, the destruction is determined in %. 100% here means that all of the ladybird larvae have been killed; 0% means that no ladybird larvae have been killed. The destruction figures ascertained are calculated by the Colby formula.

[13] = nymphs on leaves, 120 g a.i./ha

With `Cc1cc(C)c(C2=C(OC(=O)CC(C)(C)C)C3(CCCC3)OC2=O)c(C)c1` [Oberon (I), Spiromesifen] the “Destruction (% Abbott) 1 day” value ([1]; eggs on leaves, 120 g a.i./ha) was 26.7 % Abbott, the “Destruction (% Abbott) 55 days” value ([1]; eggs on leaves, 120 g a.i./ha) was 0 % Abbott and the “Destruction (% Abbott) 45 days” value [1, 13] was 14.8 % Abbott. The “Destruction (% Abbott) 55 days” value [1, 13] was 24.1 % Abbott, the “Activity (% H. + T.) 3 days” value ([2]; 105 g a.i./ha) was 32.2 % H. + T and the “Activity (% H. + T.) 3 days” value ([2]; 210 g a.i./ha) was 40.7 % H. + T. For the same compound, the “Destruction (% Abbott) 3 days” value ([3]; 120 g a.i./ha) was 25.0 % Abbott, the “Destruction (% Abbott) 13 days” value ([4]; 120 g a.i./ha) was 58.5 % Abbott and the “Activity (% Abbott) 1 day” value ([5]; 120 g a.i./ha) was 32.4 % Abbott. For the same compound, the “Destruction (% Abbott) 21 days (eggs)” value ([6]; 120 g a.i./ha) was 0 % Abbott, the “Destruction (% Abbott) 1 day” value ([6]; 120 g a.i./ha) was 0 % Abbott and the “Destruction (% Abbott) 21 days (males)” value ([6]; 120 g a.i./ha) was 5 % Abbott. For the same compound, the “Destruction (% Abbott) 21 days (population)” value ([6]; 120 g a.i./ha) was 1.9 % Abbott, the “Destruction (% Abbott) 2 days” value ([7]; 120 g a.i./ha) was 50 % Abbott and the “Destruction in % after 3d” value ([8]; 100 g ai/ha) was 30%. The “Destruction (% Abbott) 7 days” value ([9]; 105 g a.i./ha) was 3.3 % Abbott, the “Destruction (% Abbott) 14 days” value ([9]; 105 g a.i./ha) was 0 % Abbott and the “Destruction (% Abbott) 14 days” value ([9]; 210 g a.i./ha) was 0 % Abbott. The “Destruction in % after 7d” value ([10]; 120 g ai/ha) was 70%, the “Destruction in % after 9d” value ([11]; 150 g ai/ha) was 55% and the “Destruction in % after 3d” value ([12]; 60 g ai/ha) was 3%. For the same compound, the “Destruction in % after 3d” value ([12]; 120 g ai/ha) was 10%.

abamectin [Abamectin (VI)] was tested, and the “Destruction (% Abbott) 1 day” value ([1]; eggs on leaves, 10 g a.i./ha) was 19.8 % Abbott, the “Destruction (% Abbott) 55 days” value ([1]; eggs on leaves, 10 g a.i./ha) was 0 % Abbott and the “Destruction (% Abbott) 45 days” value ([1]; nymphs on leaves, 10 g a.i./ha) was 0 % Abbott. The “Destruction (% Abbott) 55 days” value ([1]; nymphs on leaves, 10 g a.i./ha) was 0 % Abbott, the “Activity (% H. + T.) 3 days” value ([2]; 10.5 g a.i./ha) was 0 % H. + T and the “Activity (% H. + T.) 3 days” value ([2]; 21 g a.i./ha) was 0 % H. + T. For the same compound, the “Destruction (% Abbott) 3 days” value ([3]; 10 g a.i./ha) was 45.8 % Abbott, the “Destruction (% Abbott) 13 days” value ([4]; 7.2 g a.i./ha) was 16.5 % Abbott and the “Activity (% Abbott) 1 day” value ([5]; 6 g a.i./ha) was 27 % Abbott. The “Destruction (% Abbott) 21 days (eggs)” value ([6]; 10 g a.i./ha) was 0 % Abbott, the “Destruction (% Abbott) 1 day” value ([6]; 10 g a.i./ha) was 33.3 % Abbott and the “Destruction (% Abbott) 21 days (males)” value ([6]; 10 g a.i./ha) was 45 % Abbott. The “Destruction (% Abbott) 21 days (population)” value ([6]; 10 g a.i./ha) was 47.6 % Abbott, the “Destruction (% Abbott) 2 days” value ([7]; 10 g a.i./ha) was 0 % Abbott and the “Destruction in % after 3d” value ([8]; 4 g ai/ha) was 10%. The “Destruction (% Abbott) 7 days” value ([9]; 10.5 g a.i./ha) was 0 % Abbott, the “Destruction (% Abbott) 14 days” value ([9]; 10.5 g a.i./ha) was 0 % Abbott and the “Destruction (% Abbott) 14 days” value ([9]; 21 g a.i./ha) was 2.0 % Abbott. For the same compound, the “Destruction in % after 7d” value ([10]; 6 g ai/ha) was 0%, the “Destruction in % after 9d” value ([11]; 6 g ai/ha) was 0% and the “Destruction in % after 9d” value ([11]; 15 g ai/ha) was 0%. For the same compound, the “Destruction in % after 3d” value ([12]; 3 g ai/ha) was 63% and the “Destruction in % after 3d” value ([12]; 6 g ai/ha) was 100%.
